Entries after “also recorded” stand apart in the source; their conditions may differ.
Experiments:
[1] = Pharmacokinetics of prodrug and amphetamine after oral dosing to male dogs (Example 20); conditions: for absorption of prodrug in the upper gastrointestinal tract: male dogs, oral gavage of prodrug; for AUC / Tmax: male, dog, in vivo, po, 0.5 mg
[2] = Pharmacokinetics of amphetamine after oral dosing of d-amphetamine or Compound 1, or intranasal dosing of Compound 1, to male dogs (Example 23)
[3] = Pharmacokinetics of prodrug and amphetamine after intravenous dosing to male cynomolgus monkeys (Example 22)
human faecal homogenates = test: In vitro conversion of amphetamine prodrugs to amphetamine in human faecal homogenates; assay type: in vitro ADME; conditions: for conversion to the active by the microflora: summary of Table 4 incubations (dog, monkey, human faecal homogenates, rat caecal contents); for Amphetamine C0 / Amphetamine C6 / Amphetamine C24: human faecal homogenate, prodrug 10 μM, anaerobic, 37° C.; for Amphetamine C0: time 0; for Amphetamine C6: 6 hours; for Amphetamine C24: 24 hours; for conversion to the active, human compared to dog faecal homogenates: human vs dog faecal homogenates
Method: (§1) Frozen samples were stored at −70° C. prior to analysis for the parent drug and pro-drug using a qualified LC-MS-MS assay.

[4] = test system: monkey faecal homogenates; test: In vitro conversion of amphetamine prodrugs to amphetamine in monkey faecal homogenates; assay type: in vitro ADME; conditions: monkey faecal homogenate, prodrug 10 μM, anaerobic, 37° C., time 0
Method: as §1

[5] = test system: faecal homogenates prepared from three subjects; test: Interindividual variability in amphetamine generation in human fecal homogenates (Example 25); conditions: 100 μM, anaerobic, 37° C., up to 6 hours
[6] = Pharmacokinetics of prodrug and amphetamine after oral dosing to male cynomolgus monkeys (Example 21); conditions: cynomolgus monkey
dog faecal homogenates = test: In vitro conversion of amphetamine prodrugs to amphetamine in dog faecal homogenates; assay type: in vitro ADME; conditions: dog faecal homogenate, prodrug 10 μM, anaerobic, 37° C.; for Amphetamine C0: time 0; for Amphetamine C6: 6 hours; for Amphetamine C24: 24 hours
Method: as §1

Q: Which “absorption of prodrug in the upper gastrointestinal tract” value [1] does the source give for `CO[C@H]1O[C@H](CO)[C@@H](O)[C@H](O)[C@H]1NNC(C)Cc1ccccc1` (stereo partly drawn) [Compound 10, (2R,3S,4R,5R,6S)-6-Methoxy-2-(hydroxymethyl)-5-[2-(1-phenylpropan-2-yl)hydrazin-1-yl]oxane-3,4-diol] here?
A: high absorption

Q: Which “absorption of prodrug in the upper gastrointestinal tract” value [1] does the source give for `CCO[C@H]1O[C@H](CO)[C@@H](O)[C@H](O)[C@H]1NNC(C)Cc1ccccc1` (stereo partly drawn) [Compound 9, (2R,3S,4R,5R,6S)-6-Ethoxy-2-(hydroxymethyl)-5-[2-(1-phenylpropan-2-yl)hydrazin-1-yl]oxane-3,4-diol] here?
A: high absorption

Q: What does the source list for `CC(=O)N[C@H]1C(O)O[C@H](CO)[C@H](O)C1O[C@H](C)C(=O)N[C@@H](C)Cc1ccccc1` (stereo partly drawn) [Compound 1, (2R)-2-(((3R,4R,5R,6R)-3-acetamido-2,5-dihydroxy-6-(hydroxymethyl)tetrahydro-2H-pyran-4-yl)oxy)-N-((S)-1-phenylpropan-2-yl)propanamide]?
A: exposure to amphetamine, intranasal compared with oral administration of the prodrug ([2]; 4 mg intranasal vs 4 mg po): less than that observed following oral administration of the prodrug; onset of amphetamine appearance in the systemic circulation ([2]; intranasal): did not enhance the onset; conversion to the active amphetamine following systemic exposure [3]: no significant quantities; amphetamine levels where detected (one time point between 4 and 8 hours) ([3]; 0.2 mg d-amphetamine free base equivalents/kg): near the limit of quantification; conversion to the active by the microflora (human faecal homogenates): efficient conversion; AUC [1]: 354 ng·h/mL; Tmax [1]: 1 h; Amphetamine C0 [4]: BLQ; variability of amphetamine generation between subjects [5]: relatively modest variability; AUC ([6]; in vivo, 0.5 mg): 187 ng·h/mL; Tmax ([6]; in vivo, 0.5 mg): 1.1 h

Q: Which Tmax ([6]; in vivo, 1 mg/kg) does the source give for `C[C@H](N)Cc1ccccc1` [d-Amphetamine, d-amphetamine] here?
A: ≤ 1 h

Q: And the AUC ([6]; plasma, 1 mg/kg)?
A: 4440 ng·h/mL

Q: What about the Tmax ([6]; plasma, 1 mg/kg) of the same compound?
A: 2.4 h

Q: What does the source list for `CCC(=O)N[C@H]1C(O)O[C@H](CO)[C@@H](O)[C@@H]1O[C@H](C)C(=O)N[C@@H](C)Cc1ccccc1` (stereo partly drawn) [Compound 16, (2R)-2-[(3R,4R,5S)-2,5-dihydroxy-6-(hydroxymethyl)-3-(propanoylamino)tetrahydropyran-4-yl]oxy-N-[(1S)-1-methyl-2-phenyl-ethyl]propanamide]?
A: Amphetamine C0 (human faecal homogenates): BLQ; conversion to the active by the microflora (human faecal homogenates): efficient conversion; Amphetamine C0 (dog faecal homogenates): BLQ; AUC [1]: 273 ng·h/mL; Tmax [1]: 0.5 h

Q: Which “Amphetamine C0” value (human faecal homogenates) does the source give for `CC(C)C(=O)N[C@@H](C=O)[C@@H](O[C@H](C)C(=O)N[C@@H](C)Cc1ccccc1)[C@H](O)[C@H](O)CO` [Compound 18, N-((2R,3R,4R,5R)-4,5,6-trihydroxy-1-oxo-3-(((R)-1-oxo-1-(((S)-1-phenylpropan-2-yl)amino)propan-2-yl)oxy)hexan-2-yl)isobutyramide] here?
A: BLQ

Q: And the “Amphetamine C0” value (dog faecal homogenates)?
A: BLQ

Q: Which results are given for `CC(=O)N[C@H]1C(O)O[C@H](CO)[C@@H](O)[C@@H]1OCC(=O)N[C@@H](C)Cc1ccccc1` (stereo partly drawn) [Compound 15, 2-(((3R,4R,5S,6R)-3-acetamido-2,5-dihydroxy-6-(hydroxymethyl)tetrahydro-2H-pyran-4-yl)oxy)-N-((S)-1-phenylpropan-2-yl)acetamide]?
A: Amphetamine C0 (human faecal homogenates): BLQ; Amphetamine C0 (dog faecal homogenates): BLQ

Q: With `CC(=O)N[C@@H]1CO[C@H](CO)[C@@H](O)[C@@H]1O[C@H](C)C(=O)N[C@@H](C)Cc1ccccc1` [Compound 11, (R)-2-(((2R,3S,4R,5R)-5-Acetamido-3-hydroxy-2-(hydroxymethyl)tetrahydro-2H-pyran-4-yl)oxy)-N-((S)-1-phenylpropan-2-yl)propanamide] as the compound, how does the “Amphetamine C6” value (human faecal homogenates) read?
A: BLQ

Q: What about the “Amphetamine C24” value (human faecal homogenates) of the same compound?
A: BLQ

Q: What about the “Amphetamine C0” value (human faecal homogenates) of the same compound?
A: BLQ

Q: And the “Amphetamine C6” value (dog faecal homogenates)?
A: BLQ

Q: And the “Amphetamine C24” value (dog faecal homogenates)?
A: BLQ

Q: And the “Amphetamine C0” value (dog faecal homogenates)?
A: BLQ

Q: With `C[C@@H](Cc1ccccc1)NC(=O)[C@H](O)[C@@H](O)[C@H](O[C@@H]1O[C@H](CO)[C@H](O)[C@H](O)[C@H]1O)[C@H](O)CO` [Compound 5, (2R,3R,4R,5R)-2,3,5,6-tetrahydroxy-N-((S)-1-phenylpropan-2-yl)-4-(((2S,3R,4S,5R,6R)-3,4,5-trihydroxy-6-(hydroxymethyl)tetrahydro-2H-pyran-2-yl)oxy)hexanamide] as the compound, how does the “conversion to the active, human compared to dog faecal homogenates” value (human faecal homogenates) read?
A: greater activity in human in vitro studies; also recorded: higher in human compared to dog faecal homogenates

Q: And the “conversion to the active by the microflora” value (human faecal homogenates)?
A: efficient conversion

Q: For `CC(=O)N[C@H]1C(O)O[C@H](CO)[C@@H](O)[C@@H]1O[C@@H](C)C(=O)N[C@@H](C)Cc1ccccc1` (stereo partly drawn) [Compound 14, (2S)-2-(((3R,4R,5S,6R)-3-Acetamido-2,5-dihydroxy-6-(hydroxymethyl)tetrahydro-2H-pyran-4-yl)oxy)-N-((S)-1-phenylpropan-2-yl)propanamide], which “Amphetamine C6” value (human faecal homogenates) is on record?
A: BLQ

Q: What about the “Amphetamine C24” value (human faecal homogenates) of the same compound?
A: BLQ

Q: What about the “Amphetamine C0” value (human faecal homogenates) of the same compound?
A: BLQ

Q: And the “Amphetamine C0” value (dog faecal homogenates)?
A: BLQ

Q: For `CC(=O)N[C@@H](C=O)[C@@H](O[C@H](C)C(=O)N[C@H](C)Cc1ccccc1)[C@H](O)[C@H](O)CO` [Compound 13, (2R)-2-{[(2R,3R,4R,5R)-2-Acetamido-4,5,6-trihydroxy-1-oxohexan-3-yl]oxy}-N-[(2R)-1-phenylpropan-2-yl]propanamide], which “Amphetamine C0” value (human faecal homogenates) is on record?
A: BLQ

Q: And the “conversion to the active by the microflora” value (human faecal homogenates)?
A: efficient conversion

Q: What about the AUC [1] of the same compound?
A: 564 ng·h/mL

Q: What about the Tmax [1] of the same compound?
A: 0.75 h

Q: What does the source list for `C[C@@H](Cc1ccccc1)NC(=O)[C@@H](C)O[C@H]1[C@H](O)[C@@H](CO)OC(O)[C@@H]1N` (mixture of isomers) [Compound 4, (2R)-2-(((3R,4R,5S,6R)-3-amino-2,5-dihydroxy-6-(hydroxymethyl)tetrahydro-2H-pyran-4-yl)oxy)-N-((S)-1-phenylpropan-2-yl)propanamide]?
A: Amphetamine C0 (human faecal homogenates): BLQ; Amphetamine C0 (dog faecal homogenates): BLQ

Q: For `C[C@@H](Cc1ccccc1)NC(=O)[C@H](O)[C@@H](O)[C@H](O)[C@H](O)CO` [Compound 6, (2R,3S,4R,5R)-2,3,4,5,6-pentahydroxy-N-((S)-1-phenylpropan-2-yl)hexanamide], which “Amphetamine C0” value (human faecal homogenates) is on record?
A: BLQ

Q: What about the “Amphetamine C0” value (dog faecal homogenates) of the same compound?
A: BLQ

Q: What about the “absorption of prodrug in the upper gastrointestinal tract” value [1] of the same compound?
A: high absorption

Q: With `C[C@@H](Cc1ccccc1)NC(=O)[C@@H](C)OC(=O)N[C@H]1C(O)O[C@H](CO)[C@@H](O)[C@@H]1O` (stereo partly drawn) [Compound 8, (1R)-1-{[(2S)-1-Phenylpropan-2-yl]carbamoyl}ethyl N-[(3R,4R,5S,6R)-2,4,5-trihydroxy-6-(hydroxymethyl)oxan-3-yl]carbamate] as the compound, how does the “Amphetamine C6” value (human faecal homogenates) read?
A: BLQ

Q: What about the “Amphetamine C24” value (human faecal homogenates) of the same compound?
A: BLQ

Q: What about the “Amphetamine C0” value (human faecal homogenates) of the same compound?
A: BLQ

Q: What about the “Amphetamine C6” value (dog faecal homogenates) of the same compound?
A: BLQ

Q: And the “Amphetamine C24” value (dog faecal homogenates)?
A: BLQ

Q: And the “Amphetamine C0” value (dog faecal homogenates)?
A: BLQ

Q: With `C[C@@H](Cc1ccccc1)NC(=O)[C@@H](C)O[C@H]1[C@H](O)[C@@H](CO)OC[C@H]1N` [Compound 12, (R)-2-(((2R,3S,4R,5R)-5-Amino-3-hydroxy-2-(hydroxymethyl)tetrahydro-2H-pyran-4-yl)oxy)-N-((S)-1-phenylpropan-2-yl)propanamide] as the compound, how does the “Amphetamine C6” value (human faecal homogenates) read?
A: BLQ

Q: And the “Amphetamine C24” value (human faecal homogenates)?
A: BLQ

Q: And the “Amphetamine C0” value (human faecal homogenates)?
A: BLQ

Q: What about the “Amphetamine C6” value (dog faecal homogenates) of the same compound?
A: BLQ

Q: What about the “Amphetamine C24” value (dog faecal homogenates) of the same compound?
A: BLQ

Q: What about the “Amphetamine C0” value (dog faecal homogenates) of the same compound?
A: BLQ

Q: Which results are given for `CC(=O)N[C@H]1[C@@H]2OC[C@@H](O2)[C@@H](O)[C@@H]1O[C@H](C)C(=O)N[C@H](C)Cc1ccccc1` [Compound 17, (2R)-2-[[(2S,3R,4R)-4-acetamido-2-hydroxy-6,8-dioxabicyclo[3.2.1]octan-3-yl]oxy]-N-[(1R)-1-methyl-2-phenyl-ethyl]propanamide]?
A: Amphetamine C0 (human faecal homogenates): BLQ; conversion to the active, human compared to dog faecal homogenates (human faecal homogenates): greater activity in human in vitro studies; also recorded: higher in human compared to dog faecal homogenates; conversion to the active by the microflora (human faecal homogenates): efficient conversion; Amphetamine C0 (dog faecal homogenates): BLQ; AUC [1]: 213 ng·h/mL; Tmax [1]: 0.5 h

Q: Which “Amphetamine C6” value (human faecal homogenates) does the source give for `CCCCCCCC(=O)N[C@@H](C=O)[C@@H](O[C@H](C)C(=O)N[C@@H](C)Cc1ccccc1)[C@H](O)[C@H](O)CO` [Compound 19, N-((2R,3R,4R,5R)-4,5,6-trihydroxy-1-oxo-3-(((R)-1-oxo-1-(((S)-1-phenylpropan-2-yl)amino)propan-2-yl)oxy)hexan-2-yl)octanamide] here?
A: BLQ

Q: And the “Amphetamine C0” value (human faecal homogenates)?
A: BLQ

Q: What about the “Amphetamine C0” value (dog faecal homogenates) of the same compound?
A: BLQ

— patent US20140073589A1, “Amphetamine Prodrugs” (Shire AG, priority 2012, published 2014)
